Source: ChEMBL document CHEMBL1146025, “Design, microwave-assisted synthesis, and spasmolytic activity of 2-(alkyloxyaryl)-1H-benzimidazole derivatives as constrained stilbene bioisosteres” (Bioorg Med Chem Lett, 2006)
pIC50: −log10 of the molar value.

How the values were obtained:
Rattus norvegicus [1] = species: Rattus norvegicus; test: Spasmolytic activity in Wistar rat ileum; format: functional
Rattus norvegicus [2] = species: Rattus norvegicus; test: Potency index, spasmolytic activity in Wistar rat ileum relative to gigantol; format: functional

SMILES	pIC50 (Rattus norvegicus [1])	Emax (Rattus norvegicus [1]) [%]	Ratio IC50 (Rattus norvegicus [2])
O=[N+]([O-])c1ccccc1-c1nc2ccccc2[nH]1	4.10	11.1	0.07
c1ccc(COc2ccccc2-c2nc3ccccc3[nH]2)cc1	4.55	51.4	0.21
COc1ccc(Cc2nccc3cc(OC)c(OC)cc23)cc1OC [PAPAVERINE]		96.7	3.76
Cc1ccc(COc2ccccc2-c2nc3ccccc3[nH]2)cc1	4.82	47.7	0.38
CN(C)c1ccc(-c2nc3ccccc3[nH]2)cc1	4.52	34.9	0.19
COc1ccc(-c2nc3ccccc3[nH]2)cc1	4.97	54.9	0.55
c1ccc2[nH]c(-c3ccncc3)nc2c1	3.72	50	0.03
Clc1ccc(COc2ccccc2-c2nc3ccccc3[nH]2)cc1	4.23	38.2	0.09

Continued, in another order:

pIC50 (Rattus norvegicus [1])	SMILES	Emax (Rattus norvegicus [1]) [%]	Ratio IC50 (Rattus norvegicus [2])
5.25	COc1ccc(-c2nc3ccccc3[nH]2)cc1OC	55	1.04
5.76	CCOc1ccccc1-c1nc2ccccc2n1CC	60	3.39
5.40	COc1cc(OC)c(-c2nc3ccccc3[nH]2)cc1OC	90	1.45
5.11	COc1ccccc1-c1nc2ccccc2[nH]1	52.8	0.75
5.71	CCOc1ccccc1-c1nc2ccccc2[nH]1	50	3
5.28	Oc1ccc(-c2nc3ccccc3[nH]2)cc1	61.2	1.11
5.72	CCCOc1ccccc1-c1nc2ccccc2[nH]1	80	3.06
5.29	Oc1ccccc1-c1nc2ccccc2[nH]1	42.4	1.13
5.47	c1ccc2[nH]c(-c3ccc4c(c3)OCO4)nc2c1	59	1.71
5.74	COc1ccc(-c2nc3ccccc3[nH]2)c(OC)c1OC	65	3.23
5.92	COc1cc(-c2nc3ccccc3[nH]2)ccc1O	70	4.9
